According to patent US5554641A, “Nonpeptides as tachykinin antagonists” (priority 1995, dated 1996):

Molecular target: T1, human NK3 receptor (Homo sapiens, UniProt P29371)
T1 construct: expressed in transfected cells; host or cells: CHO cell membranes
T1 sequence (P29371 1-465): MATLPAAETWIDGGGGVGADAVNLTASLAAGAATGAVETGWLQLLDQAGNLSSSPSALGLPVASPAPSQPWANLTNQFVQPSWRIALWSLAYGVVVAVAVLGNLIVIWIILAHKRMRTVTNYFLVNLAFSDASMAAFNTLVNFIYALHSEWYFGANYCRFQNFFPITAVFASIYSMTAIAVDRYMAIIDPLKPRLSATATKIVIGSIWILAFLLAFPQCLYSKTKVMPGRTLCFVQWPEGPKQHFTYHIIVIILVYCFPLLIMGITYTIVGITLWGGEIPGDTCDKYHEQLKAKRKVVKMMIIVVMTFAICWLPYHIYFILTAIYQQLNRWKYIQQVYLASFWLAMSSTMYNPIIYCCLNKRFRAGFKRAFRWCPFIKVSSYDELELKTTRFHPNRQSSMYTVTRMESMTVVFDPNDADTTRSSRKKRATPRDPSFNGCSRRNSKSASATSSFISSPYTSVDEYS
Assay: In vitro human NK3 receptor binding assay ([125I]-[MePhe7]neurokinin B, CHO cell membranes)

Row | Compound | IC50 [nM]
1 | CC(C)[C@H](OC(=O)NC(C)(Cc1cc2ccccc2o1)C(=O)NCCCCCCCNC(N)=O)c1ccccc1 (single isomer, unassigned) [Example 10] | 91
2 | CC(C)C(OC(=O)N[C@](C)(Cc1ccccc1)C(=O)NCCCCCCCCC(N)=O)c1ccc(Cl)cc1 (stereo partly shown) [Example 2, Carbamic acid, [2-[(9-amino-9-oxononyl)amino]-1-methyl-2-oxo-1-(phenylmethyl)ethyl]-, 1-(4-chlorophenyl)-2-methylpropyl ester] | 258
3 | CC1(C)CCc2ccccc2C1OC(=O)N[C@](C)(Cc1ccccc1)C(=O)NCCCCCCCCC(N)=O (stereo partly shown) [Example 4, [1-(8-Carbamoyl-octylcarbamoyl)-1-methyl-2-phenyl-ethyl]-carbamic acid 2,2-dimethyl-1,2,3,4-tetrahydro-naphthalen-1-yl ester] | 102
4 | CC(C)[C@H](OC(=O)N[C@](C)(Cc1ccccc1)C(=O)N[C@@H](Cc1ccc(O)cc1)C(=O)NCCCCCCO)c1ccccc1 [Example 12, {1-[1-(6-Hydroxy-hexylcarbamoyl)-2-(4-hydroxy-phenyl)-ethylcarbamoyl]-1-methyl-2-phenyl-ethyl}-carbamic acid 2-methyl-1-phenyl-propyl ester] | 15
5 | CC(C)[C@H](OC(=O)N[C@](C)(Cc1ccccc1)C(=O)N[C@@H](Cc1ccc(O)cc1)C(=O)NCCCCCCCO)c1ccccc1 [Example 13, {1-[1-(7-Hydroxy-heptylcarbamoyl)-2-(4-hydroxy-phenyl)-ethylcarbamoyl]-1-methyl-2-phenyl-ethyl}-carbamic acid 2-methyl-1-phenyl-propyl ester] | 12
6 | CC(C)[C@@H](OC(=O)N[C@](C)(Cc1ccccc1)C(=O)NC(C)(C)c1ccccc1)c1ccccc1 [Example 15, [1-Methyl-1-(1-methyl-1-phenyl-ethylcarbamoyl)-2-phenyl-ethyl]-carbamic acid 2-methyl-1-phenyl-propyl ester] | 114
7 | CC(C)[C@@H](OC(=O)N[C@](C)(Cc1ccccc1)C(=O)N[C@@H](CO)c1ccccc1)c1ccccc1 [Example 16, [1-(2-Hydroxy-1-phenyl-ethylcarbamoyl)-1-methyl-2-phenyl-ethyl]-carbamic acid 2-methyl-1-phenyl-propyl ester] | 94
8 | CC(C)C(OC(=O)N[C@](C)(Cc1ccccc1)C(=O)N[C@@H](C)c1ccccc1)c1ccc(F)cc1 (stereo partly shown) [Example 17, [1-Methyl-2-phenyl-1-(1-phenyl-ethylcarbamoyl)-ethyl]-carbamic acid 1-(4-fluoro-phenyl)-2-methyl-propyl ester] | 982

The remaining compounds from weak to strong by IC50, led by results:

Row | IC50 [nM] | Compound
9 | 61 | CC1(C)CCCc2ccccc2C1OC(=O)N[C@](C)(Cc1ccccc1)C(=O)NCCCCCCCCC(N)=O (stereo partly shown) [Example 6, [1-(8-Carbamoyl-octylcarbamoyl)-1-methyl-2-phenyl-ethyl]-carbamic acid 6,6-dimethyl-6,7,8,9-tetrahydro-5H-benzocyclohepten-5-yl ester]
10 | 52 | CC(C)[C@H](OC(=O)N[C@](C)(Cc1ccccc1)C(=O)NCCCCCCCCC(N)=O)c1ccccc1 [Example 1, Carbamic acid, [2-[(9-amino-9-oxononyl)amino]-1-methyl-2-oxo-1-(phenylmethyl)ethyl]-, 2-methyl-1-phenylpropyl ester, [R-(R*,S*)]-]
11 | 40 | C[C@](Cc1ccccc1)(NC(=O)OC(c1ccccc1)C1CCCC1)C(=O)NCCCCCCCCC(N)=O (stereo partly shown) [Example 3, [1-(8-Carbamoyl-octylcarbamoyl)-1-methyl-2-phenyl-ethyl]-carbamic acid cyclopentyl-phenyl-methyl ester]
12 | 30 | CC(C)C(OC(=O)NC(C)(Cc1cccc(F)c1F)C(=O)NCCCOCCCNC(N)=O)c1ccccc1 (stereo not shown) [Example 11, {2-(2,3-Difluoro-phenyl}-1-methyl-1-[3-{3-ureido-propoxy)-propylcarbamoyl]-ethyl}-carbamic acid 2-methyl-1-phenyl-propyl ester]
13 | 18 | C[C@](Cc1ccccc1)(NC(=O)OC1CCCCc2ccccc21)C(=O)NCCCCCCCCC(N)=O (stereo partly shown) [Example 5, [1-(8-Carbamoyl-octylcarbamoyl)-1-methyl-2-phenyl-ethyl]-carbamic acid 6,7,8,9-tetrahydro-5H-benzocyclohepten-5-yl ester]
